Reference: PubChem BioAssay (NCI)
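Results reflect a 48-hour exposure of cells in 96-well plates to compound at five concentrations. GI50 marks 50% less growth. TGI: total growth inhibition.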

How the values were obtained:
Assay in all cases: NCI anticancer screen, dose series, 48 h
MDA-N = system: MDA-N
OVCAR-3 ovarian = system: OVCAR-3 ovarian
RPMI-8226 leukemia = system: RPMI-8226 leukemia
K-562 leukemia = system: K-562 leukemia
U251 CNS = system: U251 CNS
HT29 colon = system: HT29 colon
CAKI-1 renal = system: CAKI-1 renal
UACC-257 melanoma = system: UACC-257 melanoma
HS 578T breast = system: HS 578T breast
PC-3 prostate = system: PC-3 prostate
BT-549 breast = system: BT-549 breast

O=C1c2c(ccc3c2CCC3)CC12Cc1cc3c(cc1C2)CCC3
TGI (MDA-N): > 100 µM | TGI (OVCAR-3 ovarian): > 100 µM | TGI (RPMI-8226 leukemia): > 100 µM | TGI (K-562 leukemia): > 100 µM | TGI (U251 CNS): > 100 µM | TGI (HT29 colon): > 100 µM | TGI (CAKI-1 renal): > 100 µM | TGI (UACC-257 melanoma): > 100 µM | TGI (HS 578T breast): > 100 µM | TGI (PC-3 prostate): > 100 µM

O=c1oc2ccccc2nc1/C=C(\O)c1ccc([N+](=O)[O-])cc1
TGI (OVCAR-3 ovarian): > 100 µM | TGI (K-562 leukemia): > 100 µM | TGI (BT-549 breast): > 100 µM | TGI (U251 CNS): > 100 µM | TGI (HT29 colon): > 100 µM | TGI (CAKI-1 renal): > 100 µM | TGI (UACC-257 melanoma): > 100 µM | TGI (HS 578T breast): 95.1 µM | TGI (PC-3 prostate): > 100 µM

O=C1C(=O)c2ccccc2C(O)=C1CN(CCCl)CCCl
TGI (OVCAR-3 ovarian): > 100 µM | TGI (K-562 leukemia): > 100 µM | TGI (U251 CNS): > 100 µM | TGI (HT29 colon): > 100 µM | TGI (CAKI-1 renal): > 100 µM

COC1=C(N2CC2)C(=O)c2nc3n(c2C1=O)CCC3
TGI (MDA-N): 2.89 µM | TGI (OVCAR-3 ovarian): 10.7 µM | TGI (RPMI-8226 leukemia): 0.336 µM | TGI (BT-549 breast): 2.39 µM | TGI (U251 CNS): 2.86 µM | TGI (HT29 colon): 1.57 µM | TGI (HS 578T breast): 31.3 µM | TGI (PC-3 prostate): 5.27 µM

COC(=O)C1=Cc2cc(OC)c(O)cc2[C@@H](c2ccc(O)c(OC)c2)[C@@H]1C(=O)OC
TGI (MDA-N): > 100 µM | TGI (OVCAR-3 ovarian): > 100 µM | TGI (RPMI-8226 leukemia): > 100 µM | TGI (K-562 leukemia): > 100 µM | TGI (U251 CNS): > 100 µM | TGI (HT29 colon): > 100 µM | TGI (UACC-257 melanoma): > 100 µM | TGI (HS 578T breast): > 100 µM | TGI (PC-3 prostate): > 100 µM

CNn1c(C)n[nH]c1=O
TGI (OVCAR-3 ovarian): > 100 µM | TGI (RPMI-8226 leukemia): > 100 µM | TGI (K-562 leukemia): > 100 µM | TGI (BT-549 breast): > 100 µM | TGI (U251 CNS): > 100 µM | TGI (CAKI-1 renal): > 100 µM | TGI (UACC-257 melanoma): > 100 µM | TGI (HS 578T breast): > 100 µM | TGI (PC-3 prostate): > 100 µM

O=C1CCC2CCC1C2 (stereo unspecified)
TGI (MDA-N): > 100 µM | TGI (OVCAR-3 ovarian): > 100 µM | TGI (RPMI-8226 leukemia): > 100 µM | TGI (K-562 leukemia): > 100 µM | TGI (U251 CNS): > 100 µM | TGI (HT29 colon): > 100 µM | TGI (CAKI-1 renal): > 100 µM | TGI (UACC-257 melanoma): > 100 µM | TGI (HS 578T breast): > 100 µM | TGI (PC-3 prostate): > 100 µM

[N-]=[NH+]CC(=O)OC(COCc1ccccc1)COCc1ccccc1
TGI (OVCAR-3 ovarian): > 100 µM | TGI (RPMI-8226 leukemia): > 100 µM | TGI (K-562 leukemia): > 100 µM | TGI (BT-549 breast): > 100 µM | TGI (U251 CNS): > 100 µM | TGI (HT29 colon): > 100 µM | TGI (CAKI-1 renal): 86.6 µM | TGI (UACC-257 melanoma): > 100 µM | TGI (PC-3 prostate): > 100 µM

CCCCCCCCCCCCC(O)C1CCC(C(O)CCCCCCC(O)CCCCCCCC2=CC(C)OC2=O)O1 (stereo unspecified)
TGI (MDA-N): 71.7 µM | TGI (OVCAR-3 ovarian): 45.7 µM | GI50 (RPMI-8226 leukemia): 2.05 µM | TGI (RPMI-8226 leukemia): 22.3 µM | TGI (K-562 leukemia): 40.6 µM | GI50 (BT-549 breast): 34.6 µM | TGI (BT-549 breast): > 100 µM | TGI (U251 CNS): > 100 µM | TGI (CAKI-1 renal): 71.9 µM | GI50 (UACC-257 melanoma): 12.1 µM | TGI (UACC-257 melanoma): 85.9 µM | TGI (PC-3 prostate): 90.7 µM

O=[N+]([O-])c1ccc2[nH]ncc2c1Cl
TGI (MDA-N): 48.1 µM | TGI (OVCAR-3 ovarian): > 100 µM | TGI (RPMI-8226 leukemia): 61.2 µM | TGI (K-562 leukemia): > 100 µM | TGI (BT-549 breast): 89.7 µM | TGI (U251 CNS): > 100 µM | TGI (HT29 colon): 77.4 µM | TGI (UACC-257 melanoma): > 100 µM | TGI (HS 578T breast): 59.3 µM | TGI (PC-3 prostate): 90.7 µM

COc1cc(C=Nc2ccc(C(C)C)cc2)cc(OC)c1OC
TGI (OVCAR-3 ovarian): > 100 µM | TGI (RPMI-8226 leukemia): > 68.4 µM | TGI (K-562 leukemia): > 86.7 µM | TGI (U251 CNS): > 100 µM | TGI (HT29 colon): > 100 µM | TGI (CAKI-1 renal): > 100 µM | TGI (UACC-257 melanoma): > 100 µM

COc1cc(C2C3=C(COC3=O)Oc3cc4c(cc32)OCO4)ccc1OC(C)=O (stereo unspecified)
TGI (RPMI-8226 leukemia): > 100 µM | TGI (K-562 leukemia): > 38.7 µM | TGI (BT-549 breast): 12.6 µM | TGI (U251 CNS): > 100 µM | TGI (CAKI-1 renal): 0.904 µM | TGI (UACC-257 melanoma): > 100 µM | TGI (HS 578T breast): 0.686 µM | TGI (PC-3 prostate): > 100 µM
